Test results published in ChEMBL document CHEMBL3244311, “Neuroleptics related to butaclamol. Synthesis and some psychopharmacological effects of a series of 3-aryl analogues” (J Med Chem, 1978).

Legend:
Rattus norvegicus [1] = assay: Ratio of MED for inhibition of amphetamine-induced stereotyped-behavior in ip dosed Sprague-Dawley rat to ED50 for suppression of conditioned avoidance response in ip dosed Sprague-Dawley rat; type: functional
Rattus norvegicus [2] = assay: Antipsychotic activity in ip dosed Sprague-Dawley rat assessed as suppression of conditioned avoidance response after 30 mins; type: functional
Rattus norvegicus [3] = assay: Antipsychotic activity in ip dosed Sprague-Dawley rat assessed as inhibition of amphetamine-induced stereotyped-behavior administered 15 mins post amphetamine-challenge measured for 4 hrs; type: functional; details: for minimal effective dose: read-out: MED
Rattus norvegicus [4] = organism: Rattus norvegicus; assay: Toxicity in Sprague-Dawley rat assessed as catalepsy at 10 times MED after 1 to 24 hrs relative to control; type: organism-based; details: in vivo
Rattus norvegicus [5] = assay: Relative adrenolytic potency, ratio of ED50 for protection against epinephrine-induced mortality in ip dosed Sprague-Dawley rat to MED for suppression of conditioned avoidance response in ip dosed Sprague-Dawley rat; type: functional
Rattus norvegicus [6] = organism: Rattus norvegicus; assay: Toxicity in Sprague-Dawley rat assessed as catalepsy at 10 times MED assessed as time required to reach peak effect; type: organism-based; details: in vivo
Rattus norvegicus [7] = assay: Antipsychotic activity in ip dosed Sprague-Dawley rat assessed as protection against epinephrine-induced mortality administered 1 hr prior to epinephrine-challenge measured up to 24 hrs; type: functional

Compound	Ratio (Rattus norvegicus [1])	ED50 (Rattus norvegicus [2]; 0.5 h)	inhibition (Rattus norvegicus [3])	minimal effective dose (Rattus norvegicus [3])	%max (Rattus norvegicus [4])	Ratio (Rattus norvegicus [5])	Time (Rattus norvegicus [6])	ED50 (Rattus norvegicus [7])	ED50 (Rattus norvegicus [2])	MED (Rattus norvegicus [3])
O=C(CCCN1CCC(O)(c2ccc(Cl)cc2)CC1)c1ccc(F)cc1 [HALOPERIDOL]	1	–	–	–	–	–	–	–	–	–
CN(C)CCCN1c2ccccc2Sc2ccc(Cl)cc21 [CHLORPROMAZINE]	1	–	–	–	–	–	–	–	–	–
COc1ccc([C@@]2(O)CCN3C[C@@H]4c5ccccc5CCc5cccc(c54)[C@H]3C2)cc1.Cl (racemic)	0.43	5.8 mg/kg	Dose-dependent effect	2.5 mg/kg	83%	5.3	6 h	13.2 mg/kg	–	–
COc1cccc([C@@]2(O)CCN3C[C@@H]4c5ccccc5CCc5cccc(c54)[C@H]3C2)c1.Cl (racemic)	–	1.4 mg/kg	Dose-dependent effect	1.25 mg/kg	83%	2.2	6 h	2.7 mg/kg	–	–
OCCN1CCN(CCCN2c3ccccc3Sc3ccc(C(F)(F)F)cc32)CC1 [FLUPHENAZINE]	1	–	–	–	–	–	–	–	–	–
Cl.O[C@]1(c2ccsc2)CCN2C[C@@H]3c4ccccc4CCc4cccc(c43)[C@H]2C1 (racemic)	–	8 mg/kg	Dose-dependent effect	5 mg/kg	93%	18	6 h	90 mg/kg	–	–
Cl.O[C@]1(c2ccco2)CCN2C[C@@H]3c4ccccc4CCc4cccc(c43)[C@H]2C1 (racemic)	–	6.7 mg/kg	Dose-dependent effect	5 mg/kg	83%	16.4	4 h	82 mg/kg	–	–
Cl.O[C@]1(c2cccnc2)CCN2C[C@@H]3c4ccccc4CCc4cccc(c43)[C@H]2C1 (racemic)	–	1 mg/kg	Dose-dependent effect	5 mg/kg	94%	0.94	4 h	4.7 mg/kg	–	–
Butaclamol	1	–	–	–	–	24	–	15 mg/kg	0.64 mg/kg	0.63 mg/kg
Cl.O[C@]1(c2ccccc2C(F)(F)F)CCN2C[C@@H]3c4ccccc4CCc4cccc(c43)[C@H]2C1 (racemic)	0.45	22.2 mg/kg	Dose-dependent effect	10 mg/kg	100%	>2	6 h	> 20 mg/kg	–	–
Cl.O[C@]1(c2cccc(F)c2)CCN2C[C@@H]3c4ccccc4CCc4cccc(c43)[C@H]2C1 (racemic)	–	7 mg/kg	Dose-dependent effect	5 mg/kg	100%	2.9	4 h	14.3 mg/kg	–	–
Cc1ccccc1[C@@]1(O)CCN2C[C@@H]3c4ccccc4CCc4cccc(c43)[C@H]2C1.Cl (racemic)	0.38	3.3 mg/kg	Dose-dependent effect	1.25 mg/kg	61%	5.1	4 h	6.4 mg/kg	–	–
Cl.O[C@]1(c2ccccc2)CCN2C[C@@H]3c4ccccc4CCc4cccc(c43)[C@H]2C1 (racemic)	–	3 mg/kg	Dose-dependent effect	2.5 mg/kg	32%	2.2	6 h	5.5 mg/kg	–	–
COc1ccccc1[C@@]1(O)CCN2C[C@@H]3c4ccccc4CCc4cccc(c43)[C@H]2C1.Cl (racemic)	–	0.92 mg/kg	Dose-dependent effect	0.63 mg/kg	89%	6.3	4 h	4 mg/kg	–	–
COc1ccc([C@@]2(O)CCN3C[C@@H]4c5ccccc5CCc5cccc(c54)[C@H]3C2)cc1OC.Cl (racemic)	–	6 mg/kg	Dose-dependent effect	5 mg/kg	100%	0.22	4 h	1.1 mg/kg	–	–
Cl.O[C@]1(c2cccs2)CCN2C[C@@H]3c4ccccc4CCc4cccc(c43)[C@H]2C1 (racemic)	0.45	5.6 mg/kg	Dose-dependent effect	2.5 mg/kg	100%	8.8	6 h	22 mg/kg	–	–
Cl.O[C@]1(c2ccccc2Cl)CCN2C[C@@H]3c4ccccc4CCc4cccc(c43)[C@H]2C1 (racemic)	–	3.3 mg/kg	Dose-dependent effect	2.5 mg/kg	100%	4.4	4 h	11 mg/kg	–	–
Cl.O[C@]1(Cc2ccccc2)CCN2C[C@@H]3c4ccccc4CCc4cccc(c43)[C@H]2C1 (racemic)	–	–	Dose-dependent effect	> 20 mg/kg	–	–	–	> 40 mg/kg	–	–
CSc1ccc2c(c1)N(CCC1CCCCN1C)c1ccccc1S2 (stereo unspecified) [THIORIDAZINE]	1	–	–	–	–	–	–	–	–	–
Cl.O[C@]1(c2ccc(Br)cc2)CCN2C[C@@H]3c4ccccc4CCc4cccc(c43)[C@H]2C1 (racemic)	–	14 mg/kg	Dose-dependent effect	20 mg/kg	72%	0.35	4 h	6.9 mg/kg	–	–
COc1ccc([C@@]2(O)CCN3C[C@@H]4c5ccccc5CCc5cccc(c54)[C@H]3C2)c(OC)c1.Cl (racemic)	–	16 mg/kg	Dose-dependent effect	10 mg/kg	44%	1.8	6 h	18 mg/kg	–	–
